In patent publication US20100087481A1, “ORAL PHARMACEUTICAL FORMULATIONS FOR ANTIDIABETIC COMPOUNDS” (priority 2008, published 2010):
Where two headings read alike, the source gives them in different places.

Columns and labels:
[1] = Solubility in selected oil-based media; assay type: physicochemical; conditions: oil or lipid, read-out: Solubility, Concentration
[2] = Chemical stability in selected oil-based media; assay type: physicochemical
Procedure: Studies were performed over a 2 week period at −20° C., 2-8° C., 40° C./75% RH and 60° C. At the elevated temperatures, chemical stability was monitored in the presence and absence of argon. Additionally, the pH stability of the drug was assessed over a seven week period at 40° C./75% RH, pH 2, 3, 5, 7, 9, and 10. […] In oil-based media containing neat Capmul® MCM or phosphatidylcholine (Phospholipon® 90G, Phosal® 53 MCT), drug recovery was >99%. […] The degradation observed in Capmul® MCM was inhibited by the addition of argon.

[3] = in aqueous solvents and in most organic solvents; cited from earlier work
[4] = Physical stability in selected oil-based media (visual); assay type: physicochemical
Text: Physical stability of the drug was monitored visually.

`O=S(=O)(Nc1cc(Cl)c(Oc2cnc3ccccc3c2)c(Cl)c1)c1ccc(Cl)cc1Cl.O=S(=O)(O)c1ccccc1` [besylate salt of compound 101, 2,4-Dichloro-N-[3,5-dichloro-4-(quinolin-3-yloxy)-phenyl]-benzenesulfonamide benzenesulfonate salt] showed a solubility ([1]; Capmul® MCM (oil-based medium), in Capmul ® MCM) of 16600 µg/mL, a solubility ([1]; Capmul® PG8 (oil-based medium), in Capmul ® PG8) of 2010 µg/mL and a solubility ([1]; Captex® 200 (oil-based medium), in Captex ® 200) of 450 µg/mL. It also gave a solubility ([1]; Captex® 300EP (oil-based medium), in Captex ® 300EP) of 280 µg/mL, a solubility ([1]; Captex® 355 (oil-based medium), in Captex ® 355) of 520 µg/mL and a solubility ([1]; Crodamol® (oil-based medium), in Crodamol ®) of 450 µg/mL. It also gave a solubility ([1]; Inwitor 742 (oil-based medium), in Inwitor 742) of 7930 µg/mL, a solubility ([1]; Labrafac® CC (oil-based medium), in Labrafac ® CC) of 290 µg/mL and a solubility ([1]; Labrafil® M 1944 CS (oil-based medium), in Labrafil ® M 1944 CS) of 2340 µg/mL. The solubility ([1]; Labrasol® (oil-based medium), in Labrasol ®) was 29200 µg/mL, the solubility ([1]; Maisine 35-I (oil-based medium), in Maisine 35-I) was 1160 µg/mL and the solubility ([1]; Miglyol® 132 (oil-based medium), in Miglyol ® 132) was 800 µg/mL. For the same compound, the solubility ([1]; Miglyol® 810N (oil-based medium), in Miglyol ® 810N) was 380 µg/mL, the solubility ([1]; Miglyol® 812N (oil-based medium), in Miglyol ® 812N) was 7930 µg/mL and the solubility ([1]; Peceol (oil-based medium), in Peceol) was 3940 µg/mL. For the same compound, the solubility ([1]; Phosal® 53 MCT (oil-based medium), in Phosal ® 53 MCT) was 43400 µg/mL, the solubility ([1]; in Corn Oil) was 160 µg/mL and the solubility ([1]; in Super-refined soybean oil) was 40 µg/mL. The Drug degradation ([2]; in Capmul® MCM at 60° C.) was 7%, the “Effect of argon on degradation” value ([2]; in Capmul® MCM, addition of argon) was “inhibited” and the Drug degradation ([2]; in Phosal® 53 MCT at 60° C.) was “no drug degradation”. For the same compound, the “Degradation of the drug” value ([2]; in the presence of Labrasol®, Capmul® MCM and Phospholipon® 90G, 40° C., 2-week period) was “little or no degradation”, the Solubility in words [3] was “sparingly soluble” and the “Physical stability (visual)” value ([4]; addition of 47% Capmul® MCM to oil-based media containing Phospholipon® 90G) was “inhibited solid formation”. The “Physical stability (visual)” value ([4]; high concentrations of Capmul® (>80%)) was “solidification and cloudiness” and the “Physical stability (visual)” value ([4]; warming then cooling compositions with more than 50% Phospholipon® 90G) was “formation of a fine suspension”.
